The record followed here is patent publication US10934274B2, “Quinoline derivatives as TAM RTK inhibitors” (Qurient Co., Ltd., priority 2015, dated 2021).

Each structure is given as a SMILES string.

For one test, the target named is T1, Mer (Homo sapiens, UniProt Q12866).
T1 construct: purchased Life Technologies
T1 sequence (Q12866 21-999): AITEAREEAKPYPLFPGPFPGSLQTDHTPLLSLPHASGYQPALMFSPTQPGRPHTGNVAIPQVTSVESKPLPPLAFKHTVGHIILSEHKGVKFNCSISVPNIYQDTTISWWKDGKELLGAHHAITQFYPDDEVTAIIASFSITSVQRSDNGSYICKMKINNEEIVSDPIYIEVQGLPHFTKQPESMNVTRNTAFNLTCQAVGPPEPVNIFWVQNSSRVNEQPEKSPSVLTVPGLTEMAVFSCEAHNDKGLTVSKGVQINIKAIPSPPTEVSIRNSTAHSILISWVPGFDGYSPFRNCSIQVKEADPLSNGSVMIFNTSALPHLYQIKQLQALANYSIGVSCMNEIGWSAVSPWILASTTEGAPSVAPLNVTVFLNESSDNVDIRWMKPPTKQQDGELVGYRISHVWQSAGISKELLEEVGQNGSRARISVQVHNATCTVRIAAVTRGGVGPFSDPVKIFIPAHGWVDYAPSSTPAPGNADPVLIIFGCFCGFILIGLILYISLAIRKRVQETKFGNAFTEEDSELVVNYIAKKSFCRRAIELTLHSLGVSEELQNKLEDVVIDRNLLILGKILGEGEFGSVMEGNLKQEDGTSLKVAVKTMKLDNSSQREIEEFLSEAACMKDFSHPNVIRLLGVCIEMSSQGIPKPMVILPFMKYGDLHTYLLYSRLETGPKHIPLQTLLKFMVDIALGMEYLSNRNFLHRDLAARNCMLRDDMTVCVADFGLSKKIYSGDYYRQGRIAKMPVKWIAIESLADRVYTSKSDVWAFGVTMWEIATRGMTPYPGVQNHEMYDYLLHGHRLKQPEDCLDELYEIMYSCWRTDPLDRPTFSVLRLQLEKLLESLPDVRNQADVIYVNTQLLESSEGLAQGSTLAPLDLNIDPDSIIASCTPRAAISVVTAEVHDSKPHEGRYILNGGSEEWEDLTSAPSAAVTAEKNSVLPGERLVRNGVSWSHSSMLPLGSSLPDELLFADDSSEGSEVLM
Briefly: LanthaScreen Eu kinase binding assay, Mer. Particulars: Tracer 236. On the technique in general: In TR-FRET formats the signal depends on donor and acceptor labels being close together.

A further test concerns the target T2, TYRO3 (Homo sapiens, UniProt Q06418).
T2 construct: purchased Life Technologies
T2 sequence (Q06418 41-890): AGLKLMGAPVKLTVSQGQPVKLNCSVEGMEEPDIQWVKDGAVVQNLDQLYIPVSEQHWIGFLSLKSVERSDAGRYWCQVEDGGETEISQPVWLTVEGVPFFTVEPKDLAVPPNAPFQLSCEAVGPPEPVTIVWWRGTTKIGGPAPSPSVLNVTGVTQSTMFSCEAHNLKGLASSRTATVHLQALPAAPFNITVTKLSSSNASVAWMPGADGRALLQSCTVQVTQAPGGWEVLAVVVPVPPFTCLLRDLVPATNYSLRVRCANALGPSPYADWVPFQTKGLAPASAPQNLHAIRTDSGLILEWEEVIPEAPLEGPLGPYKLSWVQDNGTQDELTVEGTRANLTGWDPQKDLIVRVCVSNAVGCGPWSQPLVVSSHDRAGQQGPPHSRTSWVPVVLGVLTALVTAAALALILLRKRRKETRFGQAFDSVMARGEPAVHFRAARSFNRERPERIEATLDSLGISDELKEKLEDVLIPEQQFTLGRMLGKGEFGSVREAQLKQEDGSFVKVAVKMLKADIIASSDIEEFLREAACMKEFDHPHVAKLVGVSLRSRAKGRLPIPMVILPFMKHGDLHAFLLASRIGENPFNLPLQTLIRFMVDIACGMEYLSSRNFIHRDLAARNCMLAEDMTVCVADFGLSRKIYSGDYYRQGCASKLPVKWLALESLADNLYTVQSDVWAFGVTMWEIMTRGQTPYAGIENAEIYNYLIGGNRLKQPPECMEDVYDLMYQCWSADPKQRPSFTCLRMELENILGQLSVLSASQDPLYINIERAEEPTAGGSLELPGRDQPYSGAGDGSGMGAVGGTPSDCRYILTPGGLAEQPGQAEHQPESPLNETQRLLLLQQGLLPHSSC
The experiment in a line: LanthaScreen Eu kinase binding assay, TYRO3. The conditions noted are these: Tracer 236.

`CCOc1cn(CCC#N)nc1C(=O)Nc1ccc(Oc2ccnc3cc(OC)c(OC)cc23)cn1` [Compound 80]: the values for the Kd on Mer and on TYRO3 were under 0.1 µM and 0.1 to 1 µM, respectively.

On to `CCOc1cn(-c2ccccn2)nc1C(=O)Nc1ccc(Oc2ccnc3cc(OC)c(OC)cc23)cn1` [Compound 4], for which the Kd is under 0.1 µM on Mer and 0.1 to 1 µM on TYRO3.

`CCOc1cn(-c2ccc(F)cc2)nc1C(=O)Nc1ccc(Oc2ccnc3cc(OC)c(OC)cc23)cn1` [Compound 89]: the Kd on Mer and on TYRO3 was under 0.1 µM each time.

Consider `CCOc1cn(-c2ncc(N)cn2)nc1C(=O)Nc1ccc(Oc2ccnc3cc(OC)c(OC)cc23)cn1` [Compound 93], for which the Kd at Mer was under 0.1 µM; on TYRO3, 0.1 to 1 µM.

In the case of `CCOc1cn(C2CCCC2)nc1C(=O)Nc1ccc(Oc2ccnc3cc(OC)c(OC)cc23)cn1` [Compound 3], the Kd on Mer and on TYRO3 was under 0.1 µM each time.

Take `CCOc1cn(C(C)CC#N)nc1C(=O)Nc1ccc(Oc2ccnc3cc(OC)c(OC)cc23)cn1` (stereo not shown) [Compound 81]: the Kd was under 0.1 µM at Mer and 0.1 to 1 µM at TYRO3.

As to `CCOc1cn(-c2ccc(F)cc2C)nc1C(=O)Nc1ccc(Oc2ccnc3cc(OC)c(OC)cc23)c(Cl)c1` [Compound 82], the Kd on Mer and at TYRO3 was under 0.1 µM each time.

As to `CCOc1cn(CCOC(F)F)nc1C(=O)Nc1ccc(Oc2ccnc3cc(OC)c(OC)cc23)cn1` [Compound 86], the Kd on Mer was under 0.1 µM; at TYRO3, 0.1 to 1 µM.

`CCOc1cn(C2CCOC2)nc1C(=O)Nc1ccc(Oc2ccnc3cc(OC)c(OC)cc23)cn1` (stereo not shown) [Compound 76]: the Kd on Mer and at TYRO3 was under 0.1 µM in each case.

Consider `CCOc1cn(-c2cccnc2)nc1C(=O)Nc1ccc(Oc2ccnc3cc(OC)c(OC)cc23)cc1F` [Compound 85], for which the values for the Kd at Mer and on TYRO3 were under 0.1 µM and 0.1 to 1 µM, respectively.

Turning to `CCOc1cn(-c2c(C)cc(OC)cc2C)nc1C(=O)Nc1ccc(Oc2ccnc3cc(OC)c(OC)cc23)cn1` [Compound 92], the Kd on Mer and at TYRO3 was under 0.1 µM each time.

For `CCOc1cn(-c2cnccc2C)nc1C(=O)Nc1ccc(Oc2ccnc3cc(OC)c(OC)cc23)cn1` [Compound 79], the Kd at Mer and at TYRO3 was under 0.1 µM in each case.

Consider `CCOc1cn(-c2ccc(Cl)cc2C)nc1C(=O)Nc1ccc(Oc2ccnc3cc(OC)c(OC)cc23)cn1` [Compound 87], for which the dissociation constant (Kd) at Mer and on TYRO3 was under 0.1 µM throughout.

For `CCOc1cn(-c2cccnn2)nc1C(=O)Nc1ccc(Oc2ccnc3cc(OC)c(OC)cc23)cn1` [Compound 5], the Kd at Mer and on TYRO3 was under 0.1 µM each time.

The term Kd denotes the equilibrium constant for the complex coming apart. A lower Kd goes with higher affinity.
